Like-named read-outs stand apart in the source and are kept apart here.
Key:
[1] = test system: V9m reporter cell line expressing a 15-PGDH luciferase fusion construct; assay: 15-PGDH-luciferase fusion gene reporter induction, V9m cell line; assay type: cell-based; settings: for percent reporter induction over basal at […]: read-out: V9M-SC3 Reporter activity % ([…]), Table 18, read-out: V9M-SC3 Reporter activity % (7.5 μM)
Description: These cell lines are Vaco-9m (V9m), LS174T, Vaco503 (V503). […] Value of 1.0 on the Y-axis is the basal level of reporter activity in cells treated with drug free DMSO vehicle.
This Example provides data on a group of structural analogues of SW033291. Data provided includes level of induction of a 15-PGDH-luciferase fusion gene reporter, recorded as % increased luciferase activity over basal level, in three colon cancer cell lines, V9m, V503, and LS174T, engineered to contain the reporter, and treated with either 2.5 uM or 7.5 uM compound (i.e., Values are recorded on a scale where 100 indicates of doubling of luciferase activity over baseline level).
FIGS. 27(A-C) show graphs that show the level of compound's activity in inducing the 15-PGDH-luciferase fusion reporter in three different test cell line backgrounds, V9m, LS174T, and V503. Each compound was tested at two concentrations, 2.5 uM, and 7.5 uM. Y-axis is luciferase activity.
Data provided include level of induction of a 15-PGDH-luciferase fusion gene reporter, recorded as % induction of luciferase activity over basal level, in three colon cancer cell lines, V9m, V503, and LS174T, engineered to contain the reporter, and treated with either 2.5 uM or 7.5 uM compound. […] Additionally, for selected compounds is recorded the decrease in PGE2 levels in the media of compound treated A549 cells that have been stimulated with IL-1 beta. Additionally recorded for selected compounds is the effect on A549 cell viability as measured by a CellTiter-Glo assay, and the effect of compounds on A549 cell colony formation.

[2] = biological target: recombinant 15-PGDH protein (Homo sapiens (Human), UniProt P15428); assay: Inhibition of enzymatic activity of recombinant 15-PGDH in vitro; assay type: biochemical; settings: read-out: Enzyme inhibition % ([…]), Table 18, […] compound;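 note: activity of recombinant human 15-PGDH assayed in vitro using PGE2 as the substrate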
Chain of recombinant 15-PGDH protein (P15428 whole entry): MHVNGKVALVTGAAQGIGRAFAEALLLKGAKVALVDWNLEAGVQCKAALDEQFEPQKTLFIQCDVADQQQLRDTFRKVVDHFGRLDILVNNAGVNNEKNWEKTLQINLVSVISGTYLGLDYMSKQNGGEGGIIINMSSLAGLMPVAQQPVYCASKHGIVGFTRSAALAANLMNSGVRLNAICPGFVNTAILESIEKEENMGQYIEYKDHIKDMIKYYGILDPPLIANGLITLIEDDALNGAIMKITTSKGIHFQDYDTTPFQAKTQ

[3] = read-out: Enzyme inhibition % (2.5 μM)
[4] = read-out: Enzyme inhibition % (7.5 μM)

Structure (SMILES)	percent reporter induction over basal at […] [1] [%]	inhibition at […] [2, 3] [%]	inhibition at […] [2, 4] [%]	activation at […] ([1]; read-out: V9M reporter activity ([…]), […], % increased luciferase activity over basal level, 100 = doubling, read-out: V9M reporter activity (2.5 uM)) [%]
CCOc1ccc(N(CC(=O)Nc2cccnc2)S(=O)(=O)c2ccccc2)cc1 [428473-22-7]	2.05	3.76	8.67	
COc1ccccc1N(CC(=O)Nc1cccnc1)S(=O)(=O)c1ccccc1 [367929-80-4]	-19	8.95	34.8	
COc1ccc(OC)c(N(CC(=O)Nc2cccnc2)S(C)(=O)=O)c1 [527699-66-7]	-37.2	-20.6	27.9	
COc1ccc(OC)c(N(CC(=O)NC2CCCCC2)S(=O)(=O)c2ccccc2)c1 [333446-93-8]	44	-5.31	5.85	
COc1ccc(OC)c(N(CC(=O)Nc2ccccc2C(N)=O)S(=O)(=O)c2ccccc2)c1 [530107-57-4]	116	21.7	9.25	
COC(=O)c1ccccc1NC(=O)CN(c1cc(OC)ccc1OC)S(=O)(=O)c1ccccc1 [333449-58-4]	71.2	9.72	-3.12	
COc1ccc(OC)c(N(CC(=O)Nc2ccc(Cl)cc2)S(=O)(=O)c2ccccc2)c1 [339589-53-6]	4.25	35.5	37.4	
O=C(CN(c1ccccc1)S(=O)(=O)c1ccccc1)Nc1cccnc1 [331727-07-2]	120	9.65	17.5	
COc1ccc(N(CC(=O)Nc2cccnc2)S(=O)(=O)c2ccccc2)cc1 [418783-65-0]	67.2	10.8	12.1	
COc1ccc(OC)c(N(CC(=O)Nc2ccc(Cl)c(Cl)c2)S(=O)(=O)c2ccccc2)c1 [339589-55-8]	8	19.1	22	
O=C(CN(c1cc(Cl)ccc1Cl)S(=O)(=O)c1ccccc1)Nc1cccnc1 [833428-03-8]	17.4	16.4	49.2	
COc1ccc(N(CC(=O)Nc2cccnc2)S(=O)(=O)c2ccccc2)c(OC)c1 [310875-38-8]	-16.4	23.5	33.4	
COc1cccc(N(CC(=O)Nc2cccnc2)S(=O)(=O)c2ccccc2)c1 [335392-39-7]	7.18	11	5.37	
COc1ccc(OC)c(N(CC(=O)Nc2ccc(F)cc2)S(=O)(=O)c2ccccc2)c1 [426231-26-7]	2.5	39.8	56.4	
COc1ccc(OC)c(N(CC(=O)Nc2ccc(C)cc2)S(=O)(=O)c2ccccc2)c1 [311333-86-5]	117	34		
O=C(CN(c1ccc2c(c1)OCCO2)S(=O)(=O)c1ccccc1)Nc1cccnc1 [701217-00-7]	79.5	10.1	13.1	
CCc1ccc(N(CC(=O)Nc2cccnc2)S(=O)(=O)c2ccccc2)cc1 [461439-84-9]	-41.8	9.28	3.35	
Nc1c([S+]([O-])Cc2ccccc2)sc2nc(-c3cccs3)cc(-c3ccccc3)c12 (stereo not drawn) [SW033292]				1.51
CCc1ccccc1N(CC(=O)Nc1cccnc1)S(=O)(=O)c1ccccc1 [528580-69-0]	-0.5	-8.22	10.2	
COc1ccc(Cl)cc1N(CC(=O)Nc1cccnc1)S(=O)(=O)c1ccccc1 [328012-52-8]	0.51	67.4	82.1	
COc1ccc(OC)c(N(CC(=O)Nc2cccnc2)S(=O)(=O)c2ccc(C)cc2)c1 [505072-23-1]	71.5	67.4	84.6	

— patent publication US10301320B2, “Compositions and methods of modulating 15-PGDH activity” (CASE WESTERN RESERVE UNIVERSITY, priority 2012, dated 2019)
